Data taken from PubChem BioAssay (NCI).
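Following 48 hours of exposure in 96-well plates, responses at five concentrations were used to interpolate endpoints linearly. Here, GI50 denotes the concentration required for 50% inhibition of growth. The concentration for full growth arrest is given as TGI.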

Tests used:
Assay in all cases: NCI tumour cell line growth inhibition, 48 h
786-0 renal = tested on: 786-0 renal
A498 renal = tested on: A498 renal
A549 NSCLC = tested on: A549 NSCLC
ACHN renal = tested on: ACHN renal
BT-549 breast = tested on: BT-549 breast
CAKI-1 renal = tested on: CAKI-1 renal
CCRF-CEM leukemia = tested on: CCRF-CEM leukemia
COLO 205 colon = tested on: COLO 205 colon
DU-145 prostate = tested on: DU-145 prostate
EKVX NSCLC = tested on: EKVX NSCLC
HCC-2998 colon = tested on: HCC-2998 colon
HCT-116 colon = tested on: HCT-116 colon
HCT-15 colon = tested on: HCT-15 colon
HL-60(TB) leukemia = tested on: HL-60(TB) leukemia
HOP-62 NSCLC = tested on: HOP-62 NSCLC
HOP-92 NSCLC = tested on: HOP-92 NSCLC
HS 578T breast = tested on: HS 578T breast
HT29 colon = tested on: HT29 colon
IGROV1 ovarian = tested on: IGROV1 ovarian
K-562 leukemia = tested on: K-562 leukemia
KM12 colon = tested on: KM12 colon
LOX IMVI melanoma = tested on: LOX IMVI melanoma
M14 melanoma = tested on: M14 melanoma
MALME-3M melanoma = tested on: MALME-3M melanoma
MCF7 breast = tested on: MCF7 breast
MDA-MB-231 breast = tested on: MDA-MB-231 breast
MDA-MB-435 = tested on: MDA-MB-435
MOLT-4 leukemia = tested on: MOLT-4 leukemia
NCI-H226 lung = tested on: NCI-H226 lung
NCI-H23 lung = tested on: NCI-H23 lung
NCI-H460 lung = tested on: NCI-H460 lung
NCI-H522 lung = tested on: NCI-H522 lung
NCI/ADR-RES ovarian = tested on: NCI/ADR-RES ovarian
OVCAR-3 ovarian = tested on: OVCAR-3 ovarian
OVCAR-4 ovarian = tested on: OVCAR-4 ovarian
OVCAR-5 ovarian = tested on: OVCAR-5 ovarian
OVCAR-8 ovarian = tested on: OVCAR-8 ovarian
PC-3 prostate = tested on: PC-3 prostate
RPMI-8226 leukemia = tested on: RPMI-8226 leukemia
RXF 393 renal = tested on: RXF 393 renal
SF-268 CNS = tested on: SF-268 CNS
SF-295 CNS = tested on: SF-295 CNS
SF-539 CNS = tested on: SF-539 CNS
SK-MEL-2 melanoma = tested on: SK-MEL-2 melanoma
SK-MEL-28 melanoma = tested on: SK-MEL-28 melanoma
SK-MEL-5 melanoma = tested on: SK-MEL-5 melanoma
SK-OV-3 ovarian = tested on: SK-OV-3 ovarian
SN12C renal = tested on: SN12C renal
SNB-19 CNS = tested on: SNB-19 CNS
SNB-75 CNS = tested on: SNB-75 CNS
SR leukemia = tested on: SR leukemia
SW-620 colon = tested on: SW-620 colon
T-47D breast = tested on: T-47D breast
TK-10 renal = tested on: TK-10 renal
U251 CNS = tested on: U251 CNS
UACC-257 melanoma = tested on: UACC-257 melanoma
UACC-62 melanoma = tested on: UACC-62 melanoma
UO-31 renal = tested on: UO-31 renal

With COc1ccc(C(=O)N/N=C/c2ccc(O)cc2O)cc1Nc1ccnc(C(F)(F)F)c1 the GI50 (786-0 renal) was 998 nM, the TGI (786-0 renal) was 9620 nM and the GI50 (A498 renal) was 193 nM. The TGI (A498 renal) was 9330 nM, the GI50 (A549 NSCLC) was 5110 nM and the TGI (A549 NSCLC) was over 53900 nM. The GI50 (ACHN renal) was 1540 nM, the TGI (ACHN renal) was 35800 nM and the GI50 (BT-549 breast) was 916 nM. The TGI (BT-549 breast) was 23800 nM, the GI50 (CAKI-1 renal) was 984 nM and the TGI (CAKI-1 renal) was 15200 nM. For the same molecule, the GI50 (CCRF-CEM leukemia) was 128 nM, the TGI (CCRF-CEM leukemia) was 1440 nM and the GI50 (COLO 205 colon) was 323 nM. The TGI (COLO 205 colon) was 14300 nM, the GI50 (DU-145 prostate) was 622 nM and the TGI (DU-145 prostate) was 15200 nM. For the same molecule, the GI50 (EKVX NSCLC) was 482 nM, the TGI (EKVX NSCLC) was 27900 nM and the GI50 (HCC-2998 colon) was 513 nM. For the same molecule, the TGI (HCC-2998 colon) was 22100 nM, the GI50 (HCT-116 colon) was 354 nM and the TGI (HCT-116 colon) was 8770 nM. The GI50 (HCT-15 colon) was 2450 nM, the TGI (HCT-15 colon) was over 100000 nM and the GI50 (HL-60(TB) leukemia) was 291 nM. It also gave a TGI (HL-60(TB) leukemia) of 923 nM, a GI50 (HOP-62 NSCLC) of 495 nM and a TGI (HOP-62 NSCLC) of 12700 nM. For the same molecule, the GI50 (HOP-92 NSCLC) was 347 nM, the TGI (HOP-92 NSCLC) was 8430 nM and the GI50 (HS 578T breast) was 1010 nM. It also gave a TGI (HS 578T breast) of 15300 nM, a GI50 (HT29 colon) of 3600 nM and a TGI (HT29 colon) of over 69200 nM. The GI50 (IGROV1 ovarian) was 575 nM, the TGI (IGROV1 ovarian) was 23400 nM and the GI50 (K-562 leukemia) was 485 nM. It also gave a TGI (K-562 leukemia) of over 35600 nM, a GI50 (KM12 colon) of 1820 nM and a TGI (KM12 colon) of 13900 nM. The GI50 (LOX IMVI melanoma) was 454 nM, the TGI (LOX IMVI melanoma) was 16400 nM and the GI50 (M14 melanoma) was 731 nM. It also gave a TGI (M14 melanoma) of 5550 nM, a GI50 (MALME-3M melanoma) of 891 nM and a TGI (MALME-3M melanoma) of over 26700 nM. The GI50 (MCF7 breast) was 1570 nM, the TGI (MCF7 breast) was 16500 nM and the GI50 (MDA-MB-231 breast) was 1710 nM. It also gave a TGI (MDA-MB-231 breast) of over 84700 nM, a GI50 (MDA-MB-435) of 507 nM and a TGI (MDA-MB-435) of 21100 nM. For the same molecule, the GI50 (MOLT-4 leukemia) was 357 nM, the TGI (MOLT-4 leukemia) was 2590 nM and the GI50 (NCI-H226 lung) was 1390 nM. The TGI (NCI-H226 lung) was 11600 nM, the GI50 (NCI-H23 lung) was 2390 nM and the TGI (NCI-H23 lung) was 20300 nM. It also gave a GI50 (NCI-H460 lung) of 3140 nM, a TGI (NCI-H460 lung) of 12700 nM and a GI50 (NCI-H522 lung) of 3220 nM. For the same molecule, the TGI (NCI-H522 lung) was 27300 nM, the GI50 (NCI/ADR-RES ovarian) was 11900 nM and the TGI (NCI/ADR-RES ovarian) was over 100000 nM. For the same molecule, the GI50 (OVCAR-3 ovarian) was 317 nM, the TGI (OVCAR-3 ovarian) was 17800 nM and the GI50 (OVCAR-4 ovarian) was 270 nM. It also gave a GI50 (OVCAR-5 ovarian) of 1160 nM, a TGI (OVCAR-5 ovarian) of 33000 nM and a GI50 (OVCAR-8 ovarian) of 919 nM. It also gave a TGI (OVCAR-8 ovarian) of over 71200 nM, a GI50 (PC-3 prostate) of 771 nM and a TGI (PC-3 prostate) of 24600 nM. It also gave a GI50 (RPMI-8226 leukemia) of 1160 nM, a TGI (RPMI-8226 leukemia) of 30800 nM and a GI50 (RXF 393 renal) of 3300 nM. The TGI (RXF 393 renal) was 15700 nM, the GI50 (SF-268 CNS) was 299 nM and the TGI (SF-268 CNS) was 16700 nM. It also gave a GI50 (SF-295 CNS) of 1070 nM, a TGI (SF-295 CNS) of 20600 nM and a GI50 (SF-539 CNS) of 404 nM. For the same molecule, the TGI (SF-539 CNS) was 7780 nM, the GI50 (SK-MEL-2 melanoma) was 9230 nM and the TGI (SK-MEL-2 melanoma) was 30600 nM. It also gave a GI50 (SK-MEL-28 melanoma) of 298 nM, a TGI (SK-MEL-28 melanoma) of 4980 nM and a GI50 (SK-MEL-5 melanoma) of 534 nM. For the same molecule, the TGI (SK-MEL-5 melanoma) was 5030 nM, the GI50 (SK-OV-3 ovarian) was 725 nM and the TGI (SK-OV-3 ovarian) was 18800 nM. It also gave a GI50 (SN12C renal) of 1150 nM, a TGI (SN12C renal) of over 47000 nM and a GI50 (SNB-19 CNS) of 816 nM. The TGI (SNB-19 CNS) was 56700 nM, the GI50 (SNB-75 CNS) was 2220 nM and the TGI (SNB-75 CNS) was 49800 nM. It also gave a GI50 (SR leukemia) of 148 nM, a TGI (SR leukemia) of 452 nM and a GI50 (SW-620 colon) of 1160 nM. The TGI (SW-620 colon) was 24200 nM, the GI50 (T-47D breast) was 688 nM and the TGI (T-47D breast) was 15000 nM. It also gave a GI50 (TK-10 renal) of 994 nM, a TGI (TK-10 renal) of 58600 nM and a GI50 (U251 CNS) of 401 nM. It also gave a TGI (U251 CNS) of 29400 nM, a GI50 (UACC-257 melanoma) of 1690 nM and a TGI (UACC-257 melanoma) of 16900 nM. The GI50 (UACC-62 melanoma) was 448 nM, the TGI (UACC-62 melanoma) was 11400 nM and the GI50 (UO-31 renal) was 2640 nM. It also gave a TGI (UO-31 renal) of over 63800 nM.
